{"source": "patent US20080260858A1", "about": "“Universal Procoagulant” (The Board of Trustees of the University of Illnois, priority 2005, published 2008)", "molecules": {"B1": {"name": "rTF: recombinant, membrane-anchoring tissue factor; rTF/PCPS is rTF relipidated into 20 mol % PS, 80 mol % PC vesicles (protein, UniProt P13726 1-295, looked up)", "chain": "METPAWPRVPRPETAVARTLLLGWVFAQVAGASGTTNTVAAYNLTWKSTNFKTILEWEPKPVNQVYTVQISTKSGDWKSKCFYTTDTECDLTDEIVKDVKQTYLARVFSYPAGNVESTGSAGEPLYENSPEFTPYLETNLGQPTIQSFEQVGTKVNVTVEDERTLVRRNNTFLSLRDVFGKDLIYTLYYWKSSSSGKKTAKTNTNEFLIDVDKGENYCFSVQAVIPSRTVNRKSTDSPVECMGQEKGEFREIFYIIGAVVFVVIILVIILAISLHKCRKAGVGQSWKENSPLNVS", "modifications": "full-length relipidated in PS/PC vesicles", "notes": "recombinant, membrane-anchoring tissue factor; rTF/PCPS is rTF relipidated into 20 mol % PS, 80 mol % PC vesicles"}}, "key": {"[1]": {"system": "pooled normal plasma", "assay": "aPTT clotting assay", "assay_type": "biochemical, human", "details": "metal ion with NTA-lipids (100 μM lipid)", "experimental": "(§1) The modified aPTT reagent contained varying concentrations of the indicated metal salts, NTA-lipids (100 μM lipid), 0.08% (w/v) sodium azide, and 16 mM Hepes buffer, pH 7.4.\naPTT assays were performed with modified aPTT reagents containing varying concentrations of NiSO4, CoCl2, CuSO4, ZnCl2, FeSO4, CdCl2, CrCl2, AgNO3 or MnCl2 in the presence of NTA-lipids (FIG. 12C). […] Co^2+ and Zn^2+ some activity (see FIG. 12C). […] Ni^2+ performed substantially better in this assay than did Cu^2+.\naPTT clotting assay—aPTT clotting assays were also carried out in a model ST4 coagulometer (Diagnostica Stago). The aPTT assays were performed by pipetting 50 μl of an aPTT reagent and 50 μl pooled normal plasma into a coagulometer cuvette and incubating the mixture for 3 min at 37° C. 50 μl prewarmed 25 mM CaCl2 was then pipetted into the cuvette and the time to clot formation was recorded."}, "[2]": {"target": "T1, VIIa (Homo sapiens, UniProt P08709)", "T1 construct": "VIIa or factor VIIa means coagulation factor VIIa (active enzyme); purchased American Diagnostica", "T1 sequence (P08709 61-212)": "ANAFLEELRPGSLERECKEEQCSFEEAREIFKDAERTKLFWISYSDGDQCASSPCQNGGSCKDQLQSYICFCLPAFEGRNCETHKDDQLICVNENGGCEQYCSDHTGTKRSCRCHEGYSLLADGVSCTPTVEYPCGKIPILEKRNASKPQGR", "T1 sequence (P08709 213-466)": "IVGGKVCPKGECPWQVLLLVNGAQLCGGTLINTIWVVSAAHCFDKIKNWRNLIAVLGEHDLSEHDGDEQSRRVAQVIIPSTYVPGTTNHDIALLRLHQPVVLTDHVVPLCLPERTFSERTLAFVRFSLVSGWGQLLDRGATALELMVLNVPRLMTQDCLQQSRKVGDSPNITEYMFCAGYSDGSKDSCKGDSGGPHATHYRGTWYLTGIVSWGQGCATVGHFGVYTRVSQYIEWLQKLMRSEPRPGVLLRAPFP", "assay": "Kd for VIIa binding to TF (X activation rate as readout)", "experimental": "When VIIa binds to TF, its rate of X activation increases dramatically, so this can be used as a convenient readout for TF:VIIa complex formation. […] Therefore, when the isolated TF ectodomain was attached to the membrane surface via interaction with metal-chelating lipids, its VIIa binding ability was indistinguishable from membTF that spanned the lipid bilayer.\nMeasurement of the Kd for VIIa binding to TF—The binding affinity of VIIa for various forms of TF was measured using the TF-dependent increase in the rate of X activation as the readout for TF:VIIa complex formation. Activation of X by the TF:VIIa complex was measured by adapting the continuous chromogenic assay of Fiore et al.. Reaction mixtures containing Vila and either rTF/PCPS or sTF+SUVs were prepared in HBSAC. Reactions were initiated by adding a mixture of X and the chromogenic substrate, S-2222, in a flat bottom, 96-well plate. Change in A405 was monitored at ambient temperature in a VERSAmax microplate reader (Molecular Devices), sampling every 15 sec for 20 min. Initial rates of X activation were determined by fitting a second-order polynomial to the A405 data as described. The quadratic ligand binding equation was fit to the rate data as described to derive apparent Kd values for the binding of VIIa to TF. For experiments using relipidated rTF, typical reaction mixtures containing 0.25 μM VIIa and 20 nM X in HBSAC were incubated with increasing concentrations of rTF/PCPS."}, "[3]": {"target": "T2, VIIa (Homo sapiens, UniProt P08709)", "T2 construct": "VIIa or factor VIIa means coagulation factor VIIa (active enzyme); purchased American Diagnostica", "assay": "Allosteric activation of VIIa (chromogenic assay)", "assay_type": "biochemical", "details": "compared to sTF and rTF/PCPS; data not shown", "experimental": "Measurement of Allosteric Activation of VIIa—The ability of TF to allosterically activate factor VIIa was carried out measuring the enzymatic activity of factor VIIa by a chromogenic assay. […] The reaction was initiated by the addition of the chromogenic substrate, Chromozym® t-PA (ChtPA) in a flat bottom, 96-well plate. […] Change in A405 was monitored at ambient temperature in a VERSAmax microplate reader (Molecular Devices), reading every 30 seconds for 20 minutes."}, "[4]": {"system": "pooled normal plasma", "assay": "PT clotting assay with modified thromboplastin reagents", "assay_type": "biochemical, human", "details": "for Concentration of TF that yields a 50 sec. clot time: His-tagged sTF with Ni-NTA-DOGS/PCPSPE (SUV with 10 mol % Ni-NTA-DOGS), rTF with PCPS", "experimental": "Thromboplastin reagents containing TF and phospholipids were prepared and diluted to various concentrations of TF. The diluted thromboplastin reagents were then used in the PT assay (FIG. 4). The four modified thromboplastin reagents were made as follows: 1. 100 ng/ml rTF relipidated in PCPS vesicles (30 μM), 2. […] The thromboplastin reagents were diluted in TA (50 mM Tris-HCl buffer, pH 7.5, 0.1% bovine serum albumin, 0.1% NaN3) to varying concentrations of TF.\nas §1\nThromboplastin reagents—To prepare a conventional thromboplastin reagent, rTF was relipidated into phospholipid vesicles composed of 20 mol % PS, 80 mol % PC (rTF/PCPS) at a 8700:1 molar ratio of phospholipid to rTF as described. rTF/PCPS preparations were then diluted to the desired final rTF concentration in TBSA (50 mM Tris-HCl buffer, pH 7.5, 100 mM NaCl, 0.1% bovine serum albumin, 0.1% NaN3).\n(§2) PT clotting assay—PT assays were performed in a model ST4 coagulometer (Diagnostica Stago) by pipetting 50 μl of 25 mM CaCl2 and 50 μl diluted thromboplastin reagent into a coagulometer cuvette and allowing the mixture to warm to 37° C. for 2 min. Clotting was then initiated by pipetting 50 μl pre-warmed, pooled normal plasma into the cuvette and the time to clot formation recorded."}, "[5]": {"system": "factor-deficient plasmas", "assay": "PT assay with factor-deficient plasmas", "assay_type": "biochemical, human", "details": "3 μg/ml sTF(His)6 with 100 μM 15% Ni-lipid, or commercial reagent", "source_text": "A major goal was to create a soluble form of TF that can function as a thromboplastin reagent in the PT assays. […] This reagent was then compared in PT assays to a commercially available thromboplastin reagent, STA-Neoplastine CI Plus (Diagnostica Stago). Clotting times with the two reagents were compared using pooled normal plasma as well as a number of factor-deficient plasmas (FIG. 6). (The latter were deficient in factors V, VII, VIII, IX, X, XI, XII, prekallikrein (PK), or high molecular weight kininogen (HK)).\nas §2"}, "[6]": {"system": "pooled normal human plasma", "assay": "Clotting assay with immobilized lipids", "assay_type": "biochemical", "details": "200 nmol dried NiPCPSPE per well; 4800 nM", "experimental": "Mixtures of DOGS-NTA-Ni and phospholipids were dried-down in the wells of a polystyrene coagulometer cuvette, the cuvettes were washed to remove any non-immobilized lipid, and then sTF-5AA-(His)6 was added to the wells. Clotting tests were subsequently conducted by adding calcium ions and plasma to wells. […] Control experiments were conducted using other lipid compositions, which were all dried down onto the cuvette well at a single amount of lipid per well (200 nmol).\nClotting assay with immobilized lipids—Lipid mixtures in chloroform were first dried down in a borosilicate glass test tube under a gentle stream of dry nitrogen gas to remove the solvent, after which the dried lipids were redissolved in n-hexane at a total lipid concentration of 0.3 to 5.3 mM. Complete lipid mixtures were termed NiPCPSPE and consisted of 10% DOGS-NTA-Ni, 12.5% PS, 30% PE, and 47.5% PC. […]\nEach well of an ST4 cuvette received 150 μl of lipid solution in hexane (containing 50 to 800 nmol total lipid per well). […] A 50 μl aliquot of 25 mM CaCl2 was added per well and the cuvettes were incubated for 2 min at 37° C., after which a 50 μl aliquot of pre-warmed (37° C.) pooled normal human plasma was added and the time to clot formation was measured."}, "[7]": {"target": "T3, X activation by VIIa (Homo sapiens, UniProt P08709)", "T3 construct": "VIIa or factor VIIa means coagulation factor VIIa (active enzyme); purchased American Diagnostica", "assay": "Factor X activation using liposomes", "assay_type": "biochemical", "details": "sTF-5AA-(His)6 with PCPS liposomes, or sTF with NiPCPS liposomes", "experimental": "A stringent test of TF:VIIa function is its ability to support the activation of its natural protein substrate, X. This requires that TF be incorporated into a suitable phospholipid membrane (i.e., one containing negatively charged phospholipids). […] The ability of various forms of TF to support the activation of X was compared under equivalent concentrations of enzyme (500 pM VIIa), cofactor (4 pM TF) and liposomes (50 μM total lipid).\nFactor X activation using liposomes. […] At varying times, 20 μl aliquots were removed into a 96-well plate containing 100 μl Stop Buffer 1 (40 mM Mes-NaOH pH 5.8, 12 mM EDTA, 50 mM NaCl, 0.25% Triton X-100, 0.1% NaN3, 0.012% Antifoam C) at 4° C. After warming the stopped reactions to room temperature, Xa was detected by adding 60 μl of 1.5 mM Spectrozyme Xa in HBSAC plus 0.6 M Tricine-NaOH, pH 8.4 and quantifying change in A405. Amounts of Xa generated were determined by comparison to a standard curve with purified Xa."}, "[8]": {"target": "T1, VIIa", "details": "rTF relipidated into PCPS vesicles; literature [4]; read-out: Kd for VIIa binding; cited from earlier work"}, "[9]": {"details": "± SEM, sTF and rTF with PCPS, sTF-(His)6 with Ni-NTA-DOGS/PCPSPE (SUV with 15 mol % Ni-NTA-DOGS), read-out: Kd.app for VIIa binding"}}, "note": "Like-named read-outs stand apart in the source and are kept apart here.", "data": [{"molecule": "O=S(=O)([O-])[O-].[Ni+2]", "note": "[Ni^2+, NiSO4]", "values": [{"measurement": "activity in aPTT assay", "setting": "[1]", "value": "dramatically shortened the clotting time"}]}, {"molecule": "sTF(His)6: oligohistidine-tagged sTF; replaces the final two amino acids of sTF with six histidine residues", "values": [{"measurement": "Kd", "setting": "[2]; read-out: Kd for VIIa binding to the his-tagged sTF variants, 15% Ni-lipid", "value": 0.169, "unit": "nM"}, {"measurement": "Kd", "setting": "[2]; [9]", "value": "0.169 ± 0.015", "unit": "nM"}, {"measurement": "ability to allosterically activate VIIa", "setting": "[3]", "value": "able to fully allosterically activate VIIa"}, {"measurement": "procoagulant activity compared with sTF", "setting": "[4]; PT assay, 10% Ni-lipids", "value": "dramatically higher than sTF"}, {"measurement": "Concentration of TF that yields a 50 sec. clot time", "setting": "[4]; PT assay", "value": 45, "unit": "ng/mL"}, {"measurement": "PT clotting times with plasmas deficient in factors V, VII or X", "setting": "[5]", "value": "prolonged clotting times"}, {"measurement": "PT sensitivity to deficiencies in clotting factors of the intrinsic pathway (factors VIII, IX, XI, XII, PK, or HK)", "setting": "[5]", "value": "insensitive"}]}, {"molecule": "[Cl-].[Cl-].[Zn+2]", "note": "[Zn^2+, ZnCl2]", "values": [{"measurement": "activity in PT assay", "setting": "[4]; metal ion with NTA-lipids (100 μM lipid), 30 ng/ml sTF-5AA-(His)6", "value": "some activity"}, {"measurement": "activity in aPTT assay", "setting": "[1]", "value": "some activity"}]}, {"molecule": "sTF: soluble tissue factor, a truncated, soluble form of tissue factor that does not have the membrane-spanning domain nor the cytoplasmic domain [reference compound]", "values": [{"measurement": "Kd", "setting": "[2]; sTF, read-out: Kd for VIIa binding", "value": 7, "unit": "nM"}, {"measurement": "clotting times compared with sTF-5AA-(His)6", "setting": "[6]", "value": "much longer clotting times"}, {"measurement": "rates of X activation by VIIa, control combinations", "setting": "[7]", "value": "negligible rates of X activation"}]}, {"molecule": "O=S(=O)([O-])[O-].[Cu+2]", "note": "[Cu^2+, CuSO4]", "values": [{"measurement": "activity in aPTT assay", "setting": "[1]", "value": "dramatically shortened the clotting time"}]}, {"molecule": "[Cl-].[Cl-].[Co+2]", "note": "[Co^2+, CoCl2]", "values": [{"measurement": "PT clotting time shortened to", "setting": "[4]; metal ion added to modified thromboplastin reagent, NTA-lipids, 30 ng/ml sTF-5AA-(His)6", "value": "less than 100 sec"}, {"measurement": "activity in aPTT assay", "setting": "[1]", "value": "some activity"}]}, {"molecule": "B1", "values": [{"measurement": "affinity of VIIa for rTF/PCPS relative to sTF", "setting": "[2]", "value": "approximately 100 fold"}, {"measurement": "Kd", "setting": "[2]; [9]", "value": "0.04 ± 0.005", "unit": "nM"}, {"measurement": "Concentration of TF that yields a 50 sec. clot time", "setting": "[4]; PT assay", "value": 0.7, "unit": "ng/mL"}, {"measurement": "Kd", "setting": "[8]", "value": "< 0.05", "unit": "nM"}]}]}
